We go through 18 compounds from patent US20120225019A1, “Dual Fluorescence Assay For Determining Viability Of Parasitic Or Non-Parasitic Worms” (priority 2009, published 2012).

Entries after “also recorded” stand apart in the source; their conditions may differ. Where a name gives a salt, the structure may show the parent alone.

The test system of assay [1] is Schistosoma mansoni schistosomula. Nature of the assay: dual-fluorescence (PI/FDA) schistosomula viability assay. The assay is classed as cell-based. The note with it: 10 μM, 24 hr. How it is done: Schistosoma mansoni (Puerto Rican strain) infected Biomphalaria glabrata snails were provided by Fred Lewis (Biomedical Research Institute, Rockville, Md., USA). Cercariae were shed from infected snails by exposure to light (60 min at room temperature, RT) and subsequently converted to schistosomula by mechanical transformation (Colley D G, Wikel S K (1974) Schistosoma mansoni: simplified method for the production of schistosomules. Experimental Parasitology 35: 44-51). Schistosomula were purified away from cercarial tails by centrifugation through a 60% percoll gradient (Lazdins J K, Stein M J, David J R, Sher A (1982) Schistosoma mansoni: rapid isolation and purification of schistosomula of different developmental stages by centrifugation on discontinuous density gradients of Percoli. Experimental Parasitology 53: 39).
Microscope examination was used to assess the quantity and quality of purified schistosomula. Schistosomula were cultured at 37° C. in T25 tissue culture flasks containing 9 ml DMEM (Dulbecco's Modified Eagle Medium, Sigma-Aldrich), lacking phenol red but containing 4500 mg/I glucose, supplemented with 10% foetal calf serum, 2 mM L-glutamine, 200 U/ml penicillin, 200 μg/ml streptomycin (all Sigma-Aldrich) in an atmosphere of 5% CO2 for 24 hr before any further experimental manipulations proceeded. Negligible parasite death occurred in this media during the 24 hr culturing period. Following this, schistosomula were aliquoted into black-sided, flat-bottom (optically clear), 96-well microtiter plates (Fisher Scientific) in 200 μl media or black-sided, flat-bottom (optically clear), 384-well microtiter plates (Matrix) in 40 μl media.
Stock solutions of all compounds were made up at 1 mM in appropriate solvents and stored at −80° C. All compounds were added to black-sided, flat-bottom (optically clear), 96-well microtiter plates containing schistosomula (1000 parasites/well in triplicate) at 10 μM concentrations. Schistosomula were cultured (as already indicated; 37° C., 5% CO2) in the presence of each compound for 24 hr before viability levels were assessed.
After the 24 hr culturing period in the presence of test compounds, and prior to addition of fluorescent dyes, all schistosomula were washed three times to remove test compound and culture media supplements. Each wash consisted of centrifuging microtiter plates containing schistosomula at 100×g for 5 min, removal of half the old culture media and replacement with an equal quantity of fresh DMEM (lacking phenol red). After washing the parasites, […] and FDA were simultaneously added to each well of the microtiter plate to obtain a final concentration of 2.0 μg/ml and 0.5 μg/ml respectively.
The 96-well microtiter plates, now containing fluorescently labeled parasites, were subsequently loaded into a BMG Labtech Polarstar Omega plate reader containing appropriate filters for the simultaneous detection of PI (544 nm excitation/620 nm emission) and FDA (485 nm excitation/520 nm emission). All fluorescent values were obtained with the plate reader incubator set at 37° C. to ensure efficient esterase conversion of FDA to fluorescein within live schistosomula. The plate reader automatically sets the photo multiplier tube (PMT) gain for each fluorescent dye and this may slightly vary between experiments. Inclusion of appropriate control samples (live and dead schistosomula) compensates for any inter-plate variations in gain settings.
All data were exported into Microsoft Excel for organization and into Minitab (Version 14) for statistical analyses. A One-Way Analysis of Variance (ANOVA) followed by post hoc testing with Fisher's least significant difference (LSD) was used to detect statistical differences between treatments. […].
Numbers of live and dead schistosomula in each well of a microtiter plate were calculated using the following equations: […]

Assay [2] shares this test system. Nature of the assay: microscopic examination of compound-treated schistosomula. Type of assay: cell-based. Conditions: 24 hr. How it is done: Live and heat killed schistosomula stained with optimal concentrations (empirically derived from Jones K, Senft J (1985) An improved method to determine cell viability by simultaneous staining with fluorescein diacetate-propidium iodide. The Journal of Histochemistry and Cytochemistry 33: 77-79) of propidium iodide (PI, 2.0 μg/ml; Sigma-Aldrich), fluorescein diacetate (FDA, 0.5 μg/ml; Sigma-Aldrich) or both fluorophores were visualized at ×100 magnification using a Leica Axioplan microscope equipped with FITC (494 excitation) and Rhodamine (536 excitation) filters and a mercury vapor light source. A Hamamatsu CA74295 camera with Wasabi Version 1.4 software was used to capture photographic images of stained schistosomula.
Schistosomula, co-incubated with test compounds, were fluorescently visualized as above or unstained at ×100 magnification using an Olympus CK2 inverted microscope equipped with a stage extension plate and specimen holder for handling microtiter plates. A Kodak EasyShare DX7440 digital camera was used to capture images of unstained schistosomula.

The test system of a further assay is schistosomula. The note with it: previously published activities; cited from earlier work.
Assay [3] has as its system Haemonchus contortus L3 larvae. Description: Haemonchus contortus FTIR. Type of assay: cell-based. Conditions: worm samples; 3 mg/ml in DMSO added at 1/100; 24 hours at 37° C. Here is the method:
1. Haemonchus contortus L3 larvae were exsheated in 5% sodium hypochlorite for 10 minutes.
2. Following exsheathment the larvae were pelleted by centrifugation at 200×g for 2 minutes, the supernatant was removed and replaced with 1×PBS. This wash step was repeated twice to remove any traces of sodium hypochlorite then resuspended in DMEM containing L-glutamine and pen-strep but lacking in phenol red.
3. The larvae were aliquoted into a 384 well plate at approx. 100 larvae per well.
4. Compounds to be tested (aldicarb, levamisole and ivermectin) were made up at 3 mg/ml in DMSO then added to test wells at 1/100.
5. An identical quantity of DMSO, lacking any compound, was added to control wells.
6. The larvae were cultured for 24 hours at 37° C. following the addition of compounds (see FIG. 11). Wells containing media and compounds, but lacking in larvae, were also set up as controls for background.
For FTIR, two samples were run from each well containing larvae. The first consisted of 10 μl of supernatant taken from the top of the well without any disturbance. The second consisted of 10 μl containing worms and any sediment stirred up from the bottom of the well. A third 10 μl sample of media containing compounds but no larvae was also run for elimination of drug chemistry. Samples were dried at 50° C. for 45 minutes to prevent interference from water before being loaded into the FTIR machine.
Collected spectra were analysed using PyChem software. Two analyses were run for all data: principle components analysis (PCA; which compresses all of the data into smaller, discreet (2) components without there being any assumptions made) and discriminate function analysis (DFA; which takes information provided about class structure to run an algorithm to maximise distances between groups (different drug treatments) and minimise distances within groups (replicates of the same drug treatment)). The circles on the DFA graphs represent mean group centres i.e. treatments that segregate with confidence intervals of 95% (inner circle) and 99% (outer circle).

Assay [4] deals with in vitro cultured, mechanically-transformed schistosomula. Conditions: 10 μM, 24 hr after treatment; cited from earlier work.
In assay [5] the test system is Schistosoma mansoni schistosomula. Nature of the assay: dual-fluorescence (PI/FDA) schistosomula viability assay. Type of assay: cell-based.

With `CC[C@@H](C(=O)[C@@H](C)[C@@H](O)[C@H](C)[C@@H]1O[C@@H]([C@@H](CC)C(=O)O)CC[C@@H]1C)[C@H]1O[C@]2(C=C[C@@H](O)[C@]3(CC[C@@](C)([C@H]4CC[C@](O)(CC)[C@H](C)O4)O3)O2)[C@H](C)C[C@@H]1C` [sodium salinomycin], the “schistosomula viability by dual-fluorescent viability assay” value (“schistosomula viability” below) in assay [1] is given as “fluorescent viability measurements similar to those derived from untreated parasites”. Also, the “schistosomula phenotype by microscopic examination” value in assay [2] (10 μM) was “strongly FDA positive (with some PI positive cells) (FIG. 6C), dark and granular (FIG. 6H), but motile”. Moreover, the “previously described effect on schistosomula phenotype” value (“previously described effect” below) with schistosomula was “induce schistosomula mortality”. On to `CNCCC(Oc1ccc(C(F)(F)F)cc1)c1ccccc1` (stereo not shown) [fluoxetine hydrochloride], for which the “schistosomula viability” value in assay [1] is recorded as “did not affect schistosomula viability”. Further, the “previously described effect” value with schistosomula is “induce schistosomula over-activity”. With `Nc1[nH]c(=O)ncc1F` [flucytosine], in assay [1], the “schistosomula viability” value was “none showed strong decreases in viability”.

Take ivermectin: the “FTIR separation of treatment from DMSO control, worms” value (“FTIR separation of treatment” for short) in assay [3] is listed as “good separation”. Turning to `CC(C)=CCC[C@]1(C)C=Cc2c(O)c3c(c(CC=C(C)C)c2O1)O[C@]12C(=C[C@@H]4C[C@H]1C(C)(C)O[C@@]2(C/C=C(/C)C(=O)O)C4=O)C3=O` [gambogic acid], the “schistosomula viability” value in assay [1] was “induced measurable death”. Besides, the “previously described effect” value in the assay with schistosomula is recorded as “induce schistosomula mortality”. For the compound `Cc1cc(C2CCCCC2)n(O)c(=O)c1` [ciclopirox], the “schistosomula viability” value in assay [1] was “none showed strong decreases in viability”. The “schistosomula phenotype by microscopic examination” value in assay [2] (10 μM) is “shape alterations in schistosomula phenotype”. Regarding `COC(=O)[C@H]1[C@H]2C[C@@H]3c4[nH]c5cc(OC)ccc5c4CCN3C[C@H]2C[C@@H](OC(=O)/C=C/c2cc(OC)c(OC)c(OC)c2)[C@@H]1OC` [rescinnamine], in assay [1], the “schistosomula viability” value is on record as “none showed strong decreases in viability”. Turning to `c1ccc([C@H]2CN3CCSC3=N2)cc1` [levamisole], in assay [3], the “FTIR separation of treatment” value is “good separation”. For the compound `CC(C)COCC(CN(Cc1ccccc1)c1ccccc1)N1CCCC1` (stereo not shown) [bepridil], the “schistosomula viability” value in assay [1] is “none showed strong decreases in viability”. As to `CC[C@]1(O)C[C@@H]2CN(CCc3c([nH]c4ccccc34)[C@@](C(=O)OC)(c3cc4c(cc3OC)N(C)[C@H]3[C@@](O)(C(=O)OC)[C@H](OC(C)=O)[C@]5(CC)C=CCN6CC[C@]43[C@@H]65)C2)C1` [vinblastine], the “schistosomula viability” value in assay [1] is “none showed strong decreases in viability”.

For `Clc1ccc(COC(Cn2ccnc2)c2ccc(Cl)cc2Cl)c(Cl)c1` (stereo not shown) [miconazole nitrate], the “schistosomula viability” value in assay [1] was “did not affect schistosomula viability”. Moreover, the “previously described effect” value with schistosomula is recorded as “shape alteration (‘rounded’ phenotype)”.

As for `O=C(Nc1ccc([N+](=O)[O-])cc1Cl)c1cc(Cl)ccc1O` [niclosamide], the “schistosomula viability” value in assay [1] is on record as “fluorescent viability measurements similar to those derived from untreated parasites”. Also, the “previously described effect” value with schistosomula was “induce schistosomula mortality”.

With `C[C@@](Cc1ccc(O)c(O)c1)(NN)C(=O)O` [carbidopa], the “schistosomula viability” value in assay [1] is “none showed strong decreases in viability”.

In the case of `C[C@@H]1[C@H](O)[C@@H](C)/C=C/C=C/C=C/C=C/C=C/C=C/C=C/[C@H](O[C@@H]2O[C@H](C)[C@@H](O)[C@H](N)[C@@H]2O)C[C@@H]2O[C@](O)(C[C@@H](O)C[C@@H](O)[C@H](O)CC[C@@H](O)C[C@@H](O)CC(=O)O[C@H]1C)C[C@H](O)[C@H]2C(=O)O` [amphotericin b], in assay [1], the “schistosomula viability” value is “induced measurable death”. Also, the “previously described effect” value in the assay with schistosomula is recorded as “induce schistosomula mortality”.

For the compound `CC(=O)OC[C@H]1O[C@@H]([S-])[C@H](OC(C)=O)[C@@H](OC(C)=O)[C@@H]1OC(C)=O.CCP(CC)CC.[Au+]` [auranofin], the “PI/FDA staining of schistosomula by epifluorescent microscopy” value in assay [2] (1 μM auranofin) is “displayed cells that were stained with either PI or FDA throughout the body”. Besides, in assay [2] (10 μM), the “death confirmed by microscopic examination of schistosomula” value was determined as 100%. Also, the “lethality to schistosomula estimated by light microscopy” value in assay [4] is reported as 100%. The “auranofin-mediated mortality compared to vehicle treated (DMSO) or untreated parasites” value in assay [5] (5 μM, 2.5 μM and 1.25 μM, 24 hr) is reported as “Statistically-significant”. Also, in assay [5] (24 hours post-treatment), the “anti-schistosomula effect (viability per drug concentration)” value is “clear and titratable anti-schistosomula effect”. Moreover, in assay [5] (auranofin titration series, fluorescent-based microtiter plate quantification, 24 hr), the “anti-schistosomula LD50 activity” value stood at 0.82 µM. On to `O=C(C1CCCCC1)N1CC(=O)N2CCc3ccccc3C2C1` (stereo not shown) [praziquantel], for which, in assay [1], the “schistosomula viability” value is “did not affect schistosomula viability; also recorded: does not kill in vitro”. In addition, the “schistosomula phenotype by microscopic examination” value in assay [2] (10 μM) is “strong rounded phenotype”. Also, the “previously described effect” value with schistosomula is “shape alteration (‘rounded’ phenotype)”. For `CNC(=O)O/N=C/C(C)(C)SC` [aldicarb], the “FTIR separation of treatment” value in assay [3] is on record as “good separation”.

Turning to `CN(C)CCCN1c2ccccc2Sc2ccc(Cl)cc21` [chlorpromazine hydrochloride], in assay [1], the “schistosomula viability” value is “did not affect schistosomula viability”. In addition, in the assay on schistosomula, the “previously described effect” value is recorded as “induce schistosomula over-activity”.
